Measured values: patent US20190054051A1, “DOPA Formulations for Treatments of Parkinson's Disease” (The Board of Trustees of the Leland Stanford Junior …, priority 2017, published 2019)

Assays:
Δ Fos B = test: Western blot of Δ Fos B accumulation in striatum; design: species or system mice; conditions: mouse, in vivo
Protocol: After behavioral testing, mice again received their assigned injection and then, 45 minutes later, were decapitated under anesthesia. Tissue samples were processed as follows. Briefly, the brain was dissected, rapidly frozen on dry ice, and stored at −80° C. Striatal tissue was collected from 100 μm coronal slices cut at the level of striatum using a cryostat (Leica CM1950, Leica Biosystems Inc, Buffalo Groove, Ill.). Striatal samples from the intact and the lesioned hemisphere were separately collected in 150p1 of lysis solution (Totally RNA, Ambion, Austin, Tex.). Care was taken to make sure that the tissue samples were collected from similar regions in all the brain samples analyzed, since there are differences in the expression of GRKs from rostral to caudal CPu. […] Western blots were quantified using band densitometry in Image J software (NIH version). […] Results are represented as group mean±SEM and analyzed using one-way or repeated-measures ANOVA (RM-ANOVA), with post hoc Bonferroni tests. The mouse cylinder test was analyzed with RM-ANOVA, with group (DOPA and DOPA-ranitidine formulations) as a between-group factor and saline vs. DOPA treatment as a within-group factor. AIMs scores were analyzed using the Kruskal Wallis test for pre-testing (DOPA injected animals) and the Mann-Whitney U test for the post-testing sessions (DOPA vs DOPA-ranitidine formulations). […]

SAPK/JNK = test: Western blot of phospho SAPK/JNK and total SAPK/JNK in striatum; type: in vivo, mice
Protocol: After behavioral testing, mice again received their assigned injection and then, 45 minutes later, were decapitated under anesthesia. Tissue samples were processed as follows. Briefly, the brain was dissected, rapidly frozen on dry ice, and stored at −80° C. Striatal tissue was collected from 100 μm coronal slices cut at the level of striatum using a cryostat (Leica CM1950, Leica Biosystems Inc, Buffalo Groove, Ill.). Striatal samples from the intact and the lesioned hemisphere were separately collected in 150p1 of lysis solution (Totally RNA, Ambion, Austin, Tex.). Care was taken to make sure that the tissue samples were collected from similar regions in all the brain samples analyzed, since there are differences in the expression of GRKs from rostral to caudal CPu. […]
Western blots were quantified using band densitometry in Image J software (NIH version). […] Results are represented as group mean±SEM and analyzed using one-way or repeated-measures ANOVA (RM-ANOVA), with post hoc Bonferroni tests. The mouse cylinder test was analyzed with RM-ANOVA, with group (DOPA and DOPA-ranitidine formulations) as a between-group factor and saline vs. DOPA treatment as a within-group factor. AIMs scores were analyzed using the Kruskal Wallis test for pre-testing (DOPA injected animals) and the Mann-Whitney U test for the post-testing sessions (DOPA vs DOPA-ranitidine formulations). […]

| SMILES | Δ Fos B accumulation on the lesioned side (Δ Fos B) | phospho JNK level in both the intact and the lesioned hemispheres (SAPK/JNK; no differences between hemispheres) | phosphorylation of p54 versus the ranitidine/DOPA formulation groups (SAPK/JNK; ranitidine alone group) |
| --- | --- | --- | --- |
| N[C@@H](Cc1ccc(O)c(O)c1)C(=O)O [L-DOPA, L-3,4-dihydroxyphenylalanine] | significantly increased on the lesioned side | elevated | – |
| CN/C(=C\[N+](=O)[O-])NCCSCc1ccc(CN(C)C)o1 [Ranitidine, N-(2-[(5-[(dimethylamino)methyl]furan-2-yl)methylthio]ethyl)-N′-methyl-2-nitroethene-1,1-diamine] | no effects | – | reduced in both the intact and lesioned hemispheres |
